Data published in patent publication US20210322508A1, “PEPTIDES AND COMPOSITIONS FOR TARGETED TREATMENT AND IMAGING” (SIGNABLOK, INC., priority 2018, published 2021).
Residues, ends and D or L forms follow the SMILES beside them.

What was measured:
[1] = tolerability in healthy mice (body weight); format: in vivo
Experimental: As described herein, healthy C57BL/6 mice were intraperitoneally (i.p.) administered daily for 7 consecutive days with GF9 at indicated doses Mouse body weight (BW) was measured daily.

[2] = system: mice with collagen-induced arthritis (CIA); assay: collagen-induced arthritis (CIA) in mice; conditions: for tolerability in arthritic mice (body weight changes) / arthritis (clinical arthritis score): CIA mice; for tolerability in arthritic mice (body weight changes): day 24 to day 38; for arthritis (clinical arthritis score): treatment days 24-38
Excerpt: As described herein, starting on day 24 after immunization, mice with CIA were intraperitoneally (i.p.) administered daily for 14 consecutive days with vehicle (black diamonds), dexamethasone (black squares), GF9 (white circles), GF9-LPC (black circles) and GA/E31-LPC (half black half white circles) at indicated doses. Daily clinical scores were given on a scale of 0-5 for each of the paws on days 24-38. On day 38, mice were killed and the histopathological examination of mouse joints was performed. Histopathological scores of inflammation (I), pannus (P), cartilage damage (CD), bone resorption (BR) and periosteal new bone formation (PBF) are shown. Summed histopathology scores were calculated as the sum of all five histopathological parameters. All results are expressed as the mean±SEM (n=10 mice per group).
Mouse body weight (BW) was measured every other day from day 24 to day 38. Mean BW changes were calculated as a percentage of the difference between beginning (day 24) and final (day 38) BWs of the CIA mice intraperitoneally (i.p.) treated daily for 14 consecutive days with vehicle, dexamethasone, GF9, GF9-LPC and GA/E31-LPC at indicated doses. All results are expressed as the mean±SEM (n=10 mice per group).
Plasma was collected on days 24, 30 and 38 from arthritic mice treated with vehicle (black diamonds), GF9 (white circles), GF9-LPC (black circles) and GA/E31-LPC (half black half white circles). Plasma samples were analyzed for concentrations of interleukin-1b (IL-1b), IL-6, and colony-stimulating factor 1 (CSF1). Results are expressed as the mean±SEM (n=5 mice per group).

[3] = Mouse tolerability studies; format: in vivo; conditions: female, C57BL/6, mouse, in vivo, ip
Experimental: Naïve, female C57BL/6 mice at 8 to 10 weeks of age (18 to 21 g) from the Jackson Laboratory were used. […] Clinical observations and body weights were made twice daily.
Naïve, female C57BL/6 mice at 8 to 10 weeks of age (18 to 21 g) from the Jackson Laboratory were used. Animals were randomly grouped (5 mice per group) and i.p. injected with 400 mg/kg G-HV21, G-KV21 or G-TE21. Clinical observations and body weights were made twice daily.

[4] = system: DBA/1 mice with collagen-induced arthritis; assay: Collagen-induced arthritis (CIA) model; conditions: for CIA severity; bone and cartilage damage: 5 mg/kg i.p. daily 14 days, free peptides
Experimental: Animal studies were performed by Bolder BioPATH (Boulder, Colo., USA). CIA was induced in male 6- to 7-week-old DBA/1 mice by immunization with bovine type II collagen. Briefly, mice were injected intradermally with 100 μl of Freund's complete adjuvant containing 250 μg of bovine type II collagen (2 mg/ml final concentration) at the base of the tail on day 0 and again on day 21. On day 24, mice were randomized by body weight into treatment groups. […] Mice were weighed on study days 24, 26, 28, 30, 32, 34, 36 and 38 (prior to necropsy). Daily clinical scores were given on a scale of 0-5 for each of the paws on days 24-38. On day 38, mice were killed for necropsy.
At the end of study, fore paws, hind paws and knees were harvested, fixed in 10% neutral buffered formalin for 1-2 days, and then decalcified in 5% formic acid for 4-5 days before standard processing for paraffin embedding. Sections (8 μm) were cut and stained with toluidine blue (T blue). Hind paws, fore paws and knees were embedded and sectioned in the frontal plane. Six joints from each animal were processed for histopathological evaluation. The joints were then assessed using 0-5 scale for inflammation, pannus formation, cartilage damage, bone resorption and periosteal new bone formation. A summed histopathology score (sum of five parameters, 0-25 scale) was also determined.
Animal studies were performed by Bolder BioPATH (Boulder, Colo., USA). CIA was induced in male 6- to 7-week-old DBA/1 mice by immunization with bovine type II collagen. Briefly, mice were injected intradermally with 100 μl of Freund's complete adjuvant containing 250 μg of bovine type II collagen (2 mg/ml final concentration) at the base of the tail on day 0 and again on day 21. On day 24, mice were randomized by body weight into treatment groups. […] Starting day 24, mice were injected i.p. intraperitoneally daily for 14 consecutive days with 5 mg/kg G-KV21, G-HV21, G-TE21, M-TK32 and M-VE32 or with PBS (vehicle). Mice were weighed on study days 24, 26, 28, 30, 32, 34, 36 and 38 (prior to necropsy). Daily clinical scores were given on a scale of 0-5 for each of the paws on days 24-38. On day 38, mice were killed for necropsy.

H292 and A549 xenografts = conditions: for tumor growth: free peptides i.p. at indicated doses
Experimental: Animal efficacy studies were performed using female 6-8 week old NU/J mice from the Jackson Laboratory (Bar Harbor, Me.). Animals were handled as specified in the USDA Animal Welfare Act (9 CFR, Parts 1, 2, and 3) and as described in the Guide for the Care and Use of Laboratory Animals from the National Research Council. Human lung carcinoma cell lines H292 and A549 were obtained from ATCC. Tumor cells in culture were harvested and resuspended in a 1:1 ratio of RPMI 1640 and Matrigel (BD Biosciences, San Jose, Calif.). NSCLC xenografts were established by injecting subcutaneously into the right flanks 5×10^6 viable cells per mouse. Tumor volumes were calculated with caliper measurements using the formula V=π/6 (length×width×width). […] All tested formulations were intraperitoneally (i.p.) injected at indicated doses and administration schedule. Clinical observations, body weights and tumor volume measurements were made 3 times weekly. Tumor volumes were analyzed using repeated measures ANOVA followed by Bonferroni test. Data points were represented as mean tumor volume±SEM. Antitumor effects were expressed as the percentage of T/C (treated versus control), dividing the tumor volumes from treatment groups with the control groups and multiplied by 100. According to the National Cancer Institute (NCI) standards (see e.g., Johnson, et al. Br J Cancer 2001, 84:1424-1431), a % T/C≤42 is indicative of antitumor activity. At the end of the experiment, the animals were sacrificed and the tumors were excised and weighed.

mouse lipoproteins = assay: ultracentrifugation of mouse serum with added rho B-labeled peptides; conditions: for behaviour on ultracentrifugation of delipoproteinized mouse serum: rho B-labeled peptide added to delipoproteinized mouse serum; for behaviour on ultracentrifugation of whole mouse serum: rho B-labeled peptide added to whole mouse serum
[5] = healthy C57BL/6 mice, average weights
[6] = 400 mg/kg, free form, healthy mice

SMILES | toxicity in healthy mice [1, 5] | tolerability in arthritic mice (body weight changes) [2] | arthritis (clinical arthritis score) [2] | MTD [3, 6] [mg/kg] | CIA severity; bone and cartilage damage [4] | tumor growth (H292 and A549 xenografts) | behaviour on ultracentrifugation of delipoproteinized mouse serum (mouse lipoproteins) | behaviour on ultracentrifugation of whole mouse serum (mouse lipoproteins) | MTD at 168 h ([1]; C57BL/6, mouse, in vivo, ip) [mg/kg] | dose tolerated by healthy mice ([1]; healthy mice, GF9 i.p. daily for 7 consecutive days) | toxicity in healthy mice ([1]; mouse, in vivo) | penetration of the synovial membrane ([2]; mouse, in vivo) | MTD [3] [mg/kg] | toxicity / tolerability in arthritic mice ([4]; mouse, in vivo, ip) | toxicity / tolerability in cancer mice (H292 and A549 xenografts; in vivo)
CC(C)C[C@H](NC(=O)[C@H](Cc1ccccc1)NC(=O)CN)C(=O)N[C@@H](CO)C(=O)N[C@@H](CCCCN)C(=O)N[C@@H](CO)C(=O)N[C@@H](CC(C)C)C(=O)N[C@H](C(=O)N[C@@H](Cc1ccccc1)C(=O)NCC(=O)N[C@@H](CCC(=O)O)C(=O)N[C@@H](CCC(=O)O)C(=O)N[C@@H](CC[S+](C)[O-])C(=O)N[C@@H](CCCNC(=N)N)C(=O)N[C@@H](CC(=O)O)C(=O)N[C@@H](CCCNC(=N)N)C(=O)N[C@@H](C)C(=O)N[C@@H](CCCNC(=N)N)C(=O)N[C@@H](C)C(=O)N[C@@H](Cc1c[nH]cn1)C(=O)N[C@H](C(=O)O)C(C)C)C(C)C (stereo partly drawn) [G-HV21] (HELM PEPTIDE1{G.F.L.S.K.S.L.V.F.G.E.E.[CS(=O)CC[C@H](N[*:1])C(=O)[*:2]].R.D.R.A.R.A.H.V}$$$$V2.0) | No toxicity was observed | well-tolerated by arthritic mice | ameliorate the disease | ≥ 400 | ameliorate CIA and protect against bone and cartilage damage | inhibit tumor growth in two human NSCLC xenograft mouse models | sedimentate with serum proteins | floatation of these peptides with mouse lipoproteins |  |  |  |  |  |  | 
CC(C)C[C@H](NC(=O)[C@H](Cc1ccccc1)NC(=O)CN)C(=O)N[C@@H](CO)C(=O)N[C@@H](CCCCN)C(=O)N[C@@H](CO)C(=O)N[C@@H](CC(C)C)C(=O)N[C@H](C(=O)N[C@@H](Cc1ccccc1)C(=O)N[C@@H](Cc1c[nH]c2ccccc12)C(=O)N[C@@H](CCC(N)=O)C(=O)N[C@@H](CCC(=O)O)C(=O)N[C@@H](CCC(=O)O)C(=O)N[C@@H](CC[S+](C)[O-])C(=O)N[C@@H](CCC(=O)O)C(=O)N[C@@H](CC(C)C)C(=O)N[C@@H](Cc1ccc(O)cc1)C(=O)N[C@@H](CCCNC(=N)N)C(=O)N[C@@H](CCC(N)=O)C(=O)N[C@@H](CCCCN)C(=O)N[C@H](C(=O)O)C(C)C)C(C)C (stereo partly drawn) [G-KV21] (HELM PEPTIDE1{G.F.L.S.K.S.L.V.F.W.Q.E.E.[CS(=O)CC[C@H](N[*:1])C(=O)[*:2]].E.L.Y.R.Q.K.V}$$$$V2.0) | No toxicity was observed | well-tolerated by arthritic mice | ameliorate the disease | ≥ 400 | ameliorate CIA and protect against bone and cartilage damage | inhibit tumor growth in two human NSCLC xenograft mouse models | sedimentate with serum proteins | floatation of these peptides with mouse lipoproteins |  |  |  |  |  |  | 
CC(C)C[C@H](NC(=O)[C@H](Cc1ccccc1)NC(=O)CN)C(=O)N[C@@H](CO)C(=O)N[C@@H](CCCCN)C(=O)N[C@@H](CO)C(=O)N[C@@H](CC(C)C)C(=O)N[C@H](C(=O)N[C@@H](Cc1ccccc1)C(=O)O)C(C)C [GF9] (H-GFLSKSLVF-OH) |  |  |  |  |  |  |  | sedimentate with serum proteins | ≥ 300 | up to 300 mg/kg | non-toxic | penetrate the synovial membrane | ≥ 300 | non-toxic and well-tolerable by arthritic mice | non-toxic and well-tolerable by cancer mice
